Assay results published in US20140308657A1, “SERINE PROTEASE INHIBITOR KAZAL ANTIBODIES” (priority 2010, published 2014).
Read-outs that look alike come from different tables or passages of the source. Where a SMILES comes first, the peptide text is derived from it. The star is where a group is joined. Cbz = O=C(OCc1ccccc1)*; CH2F = FC*

Tests used:
[1] = test system: Huh7T cells; assay: Etoposide induced CDCA, annexin stain, Huh7T cells; assay type: cell-based, human; details: Huh7T cell, 40 hours treatment
Method: (§1) FIG. 5A. S2-3 and Huh7T cells were treated with CDCA inducer 400 μM etoposide. After 40 hours, the cells apoptosis was examined in microscope and stained with annexin.
(§2) 10^5 S2-3 and Huh7T cells were seeded in 60 mm dishes. When the cell reached 90% confluent, CDCA inducer etoposide was added. After 28-40 hours, the cell shrinkage, blebbing and detachment from culture was found in both cell lines. At the same time, the strong fluorescence stain by annexin was also observed in both cell lines [FIG. 5A]. The amount of apoptotic cells in two cell lines was very similar. Around 62% S2-3 cell was stained by annexin, while 58% of Huh7T cell was stained after 40 hours treatment [data not shown].

[2] = test system: HepG2.215 and G54; assay: Etoposide induced CDCA in HepG2.215 and G54 cells; assay type: cell-based, human; details: HepG2.215 and G54, data not shown
Method: To study the influence of HCV replication upon SPDCA, G54 and Huh7T cells (its parent cell) were seeded in a 60 mm dish. SPDCA was induced by BFA/CHX/Z-VAD. […] The insensitivity of HCV replicon cell to SPDCA was also seen subsequently by annexin staining. Compared to the parental cells, much fewer HCV expressing cells were stained by annexin after being treated with SPDCA inducers BFA/CHX/Z-VAD [FIG. 8C, Annexin]. DNA fragmentation study also support that the HCV expressing cells were more resistant to apoptosis. 70 hours treatment of BFA/CHX/Z-VAD obviously triggered the DNA fragmentation in Huh7T cell, but not in G54 cells [FIG. 8D]. […] In contrast, both HepG2.215 and G54 are sensitive to CDCA induced by etoposide [data not shown].

[3] = test system: caspase 3; assay: Caspase 3 activity in S2-3 and Huh7T cells; assay type: cell-based, human; details: 40 hours treatment, caspase 3 kit
Method: FIG. 5B. The activation of caspase 3 (CDCA) in S2-3 cells treated with etoposide but not BFA/CHX/Z-VAD. The S2-3 cell and its parental cell Huh7T were either treated with SPDCA inducer BFA/CHX/ZVAD or CDCA inducer etoposide. The caspase activity was determined after […] treatment by Caspase 3 detection kit (Biovision, Mountain View, Calif.).
The same level of apoptosis induced by etoposide in S2-3 cell and Huh7T cell was confirmed by the examination of caspase 3 activity in these cells. After 40 hours treatment, all cells were lysed in […] lysis buffer. […] lysate of each sample was analyzed for caspase 3 activity test using caspase 3 detected kits [Biovision, Mountain View, Calif.]. […] Additionally, the activity of caspase3 was not increased in the cells, in which SPDCA was induced by BFA/CHX, even by double doses [FIG. 5B, B/C/ZX2].

[4] = test system: S2-3 cells; assay: Etoposide induced CDCA, annexin stain, S2-3 cells; assay type: cell-based, human; details: S2-3 cell, 40 hours treatment
Method: as §1, §2

[5] = test system: HCV replicon; assay: HCV replication in HCV replicon cells (Northern blot of HCV RNA); assay type: cell-based; details: 10^5 IU/ml overnight
Method: (§3) FIG. 7A-7B. SPIK in the HCV expressing cells. SPIK RNA was detected in the cells with/without HCV replicon as before. HCV RNA was defined by the hybridization of membrane with radio-labeled probe specified HCV.
(§4) FIG. 7B—HCV replicon cells were incubated with HCV polymerase inhibitor 888 (2 mM) 2 days (Lines 3 & 4 duplicate) and 10^5 IU/ml interferon-a overnight (Lines 5 & 6 duplicate) or left untreated (Line 1 & 2 duplicate). The suppressions of HCV RNA and SPIK RNA then were analyzed by Northern blot as before. The smear detected by HCV probe under the band of HCV RNA probably was the replication form of HCV.
(§5) Over-expression of SPIK RNA in G54 cells can be abrogated by inhibition of HCV replication. Treatment of HCV replicon cells with either 2 mM of the HCV polymerase inhibitor 888 for two days or 10^5 IU/ml interferon-a overnight has reduced HCV replication by approximately 90% [FIG. 7B, lane 3-6]. This is consistent with previous reports of these antiviral agents (55, 56).

[6] = test system: SPIK RNA; assay: SPIK RNA level in G54 HCV replicon cells after antiviral treatment; assay type: cell-based, human; details: 10^5 IU/ml overnight
Method: as §3, §4, §5

[7] = test system: prostate tumor cells; details: cited from earlier work

Compound: COc1cc([C@@H]2c3cc4c(cc3[C@@H](O[C@@H]3O[C@@H]5CO[C@@H](C)O[C@H]5[C@H](O)[C@H]3O)[C@H]3COC(=O)[C@H]23)OCO4)cc(OC)c1O [etoposide]
- cells stained by annexin [1]: 58%
- sensitivity to CDCA [2]: sensitive
- caspase 3 activity [3]: at the same level in both cells
- cells stained by annexin [4]: Around 62%

Compound: interferon-a
- reduction of HCV replication [5]: approximately 90%
- SPIK level [6]: correspondingly decreased with HCV RNA

Compound: NCCc1ccc(S(=O)(=O)F)cc1 [AEBSF, 4-2-aminoethyl-benzenesulfonyl fluoride]
- block of FADD induced apoptosis ([7]; combining use of Z-VAD and AEBSF): completely blocked

Compound: CC(NC(=O)C(NC(=O)OCc1ccccc1)C(C)C)C(=O)NC(CC(=O)O)C(=O)CF (stereo not drawn) [Z-VAD] (Cbz-Val-Ala-Asp-CH2F; configuration not given here)
- block of FADD induced apoptosis ([7]; alone): unable to be completely blocked
- caspase 3 activity [3]: kept unchanged
